Key:
Type in all cases: functional, organism-based
[1] = test system: Trypanosoma cruzi; test: Antimicrobial activity against Trypanosoma cruzi
[2] = test system: Leishmania donovani; test: Antimicrobial activity against Leishmania donovani
[3] = test system: Plasmodium falciparum; test: Antimicrobial activity against Plasmodium falciparum
[4] = test system: Entamoeba histolytica; test: Antimicrobial activity against Entamoeba histolytica

| IC50 [3] [µM] | IC50 [4] [µM] | Structure (SMILES) | also measured |
| --- | --- | --- | --- |
| – | – | COc1ccc(CCNC(=O)/C=C/C=C/c2ccc3c(c2)OCO3)cc1OC | IC50 ([1]; Trypanosoma cruzi): 66 µM |
| – | – | C[C@@H]1CC[C@H]2[C@@H](CCCc3ccc(Cl)c(Cl)c3)CO[C@@H]3O[C@@]4(C)CC[C@@H]1[C@]32OO4 | IC50 [2]: 2 µM |
| – | – | C(/C=C/c1ccc2c(c1)OCO2)=C\CN1CCCCC1 | IC50 ([1]; Trypanosoma cruzi): 10 µM |
| – | – | Cn1c2nc3ccccc3c-2cc2cc(Br)ccc21 | IC50 ([1]; Trypanosoma cruzi): 32 µM |
| 200 | 200 | O=C(O)c1cn(C2CC2)c2cc(N3CCN(CC(P(=O)(O)O)P(=O)(O)O)CC3)c(F)cc2c1=O | – |
| – | – | CCCN(CCC)c1c([N+](=O)[O-])cc(S(=O)(=O)N(c2ccccc2)c2ccccc2)cc1[N+](=O)[O-] | IC50 [2]: 100 µM |
| – | – | CCCCN(CCCC)c1c([N+](=O)[O-])cc(S(=O)(=O)Nc2ccccc2)cc1[N+](=O)[O-] | IC50 [2]: 3 µM |
| – | – | CCCC[C@H]1C(=O)O[C@@H]2O[C@@]3(CCCCc4ccccc4)CC[C@H]4[C@H](C)CC[C@@H]1[C@@]24OO3 | IC50 [2]: 5 µM |
| – | – | C[C@@H]1CC[C@H]2CC(=O)O[C@@H]3O[C@@]4(CCCc5ccc(Cl)cc5)CC[C@@H]1[C@@]23OO4 | IC50 [2]: 11 µM |
| – | – | CCCC[C@@]12CC[C@H]3[C@H](C)CC[C@H]4CC(=O)O[C@H](O1)[C@]43OO2 | IC50 [2]: 258 µM |
| 200 | 200 | O=P(O)(O)C(N(C1CCCCC1)C1CCCCC1)P(=O)(O)O [(DICYCLOHEXYLAMINO)METHYLENEDIPHOSPHONIC ACID] | – |
| 200 | 200 | CCCN(CCC)C(P(=O)(O)O)P(=O)(O)O [(DIPROPYLAMINO)METHYLENEDIPHOSPHONIC ACID] | – |
| 5 | 200 | CCCCCNC(P(=O)(O)O)P(=O)(O)O [(PENTYLAMINO)METHYLENEDIPHOSPHONIC ACID] | – |
| 200 | 200 | O=P(O)(O)C(NCCc1ccccc1)P(=O)(O)O [(PHENETHYLAMINO)METHYLENEDIPHOSPHONIC ACID] | – |
| 200 | 200 | NCCCC(O)(P(=O)(O)O)P(=O)(O)O [ALENDRONIC ACID] | – |
| – | – | O=c1ncnc2n([C@H]3O[C@@H](CO)[C@H](O)[C@@H]3O)[nH]cc1-2 [ALLOPURINOL RIBOSIDE] | IC50 [2]: 4 µM |

| IC50 [3] [µM] | IC50 [4] [µM] | Structure (SMILES) | also measured |
| --- | --- | --- | --- |
| – | – | O=C(Cn1ccnc1[N+](=O)[O-])NCc1ccccc1 [BENZNIDAZOLE] | IC50 ([1]; Trypanosoma cruzi): 3 µM |
| 200 | 200 | O=P(O)(O)C(O)(C1CCCCC1)P(=O)(O)O [CYCLOHEXYL(HYDROXY)METHYLENEDIPHOSPHONIC ACID] | – |
| – | – | NCCC[C@](N)(C(=O)O)C(F)F [EFLORNITHINE, (S)-] | IC50 [2]: 225 µM |
| 59 | 54 | CCCCCN(C)CCC(O)(P(=O)(O)O)P(=O)(O)O [IBANDRONIC ACID] | – |
| – | – | O=C(/C=C/c1ccc2c(c1)OCO2)N1CCCCC1 [ILEPCIMIDE] | IC50 ([1]; Trypanosoma cruzi): 97 µM |
| 200 | 200 | O=P(O)(O)C(NC1CCCCCC1)P(=O)(O)O [INCADRONIC ACID] | – |
| 200 | 200 | O=P(O)(O)C(N1CCCCCC1)P(=O)(O)O [N-(HEXAMETHYLENEIMINO)METHYLENEBISPHOSPHONIC ACID] | – |
| 200 | 200 | NCCCCCC(O)(P(=O)(O)O)P(=O)(O)O [NERIDRONIC ACID] | – |
| 200 | 200 | CN(C)CCC(O)(P(=O)(O)O)P(=O)(O)O [OLPADRONIC ACID] | – |
| 200 | 200 | NCCC(O)(P(=O)(O)O)P(=O)(O)O [PAMIDRONIC ACID] | – |
| – | – | O=C(O)/C=C/C=C/c1ccc2c(c1)OCO2 [PIPERIC ACID] | IC50 ([1]; Trypanosoma cruzi): 115 µM |
| – | – | O=C(/C=C/C=C/c1ccc2c(c1)OCO2)N1CCCCC1 [PIPERINE] | IC50 ([1]; Trypanosoma cruzi): 5 µM |
| – | – | Nc1ncnc2c1ncn2[C@@H]1O[C@H](C[C@@H](N)CC[C@H](N)C(=O)O)[C@@H](O)[C@H]1O [SINEFUNGIN] | IC50 [2]: 1 µM |
| – | – | C[S+]([O-])CCCCN=C=S (configuration not stated) [SULFORAPHANE] | IC50 [1]: 102 µM; IC50 ([1]; Trypanosoma cruzi): 120 µM |
| 200 | 200 | O=P(O)(O)C(N1CCSCC1)P(=O)(O)O [THIOMORPHOLINOMETHYLENEDIPHOSPHONIC ACID] | – |

| Structure (SMILES) | IC50 [3] [µM] | IC50 [4] [µM] | also measured |
| --- | --- | --- | --- |
| O=P(O)(O)C(Nc1cc(Cl)cc(Cl)c1)P(=O)(O)O [(3,5-DICHLOROPHENYLAMINO)METHYLENEDIPHOSPHONIC ACID] | 200 | 200 | – |
| CCCCNC(P(=O)(O)O)P(=O)(O)O [(BUTYLAMINO)METHYLENEDIPHOSPHONIC ACID] | 200 | 200 | – |
| O=P(O)(O)C(NC1CCC1)P(=O)(O)O [(CYCLOBUTYLAMINO)METHYLENEDIPHOSPHONIC ACID] | 200 | 200 | – |
| CC(C)CNC(P(=O)(O)O)P(=O)(O)O [(ISOBUTYLAMINO)METHYLENEDIPHOSPHONIC ACID] | 200 | 200 | – |
| CCCNC(P(=O)(O)O)P(=O)(O)O [(PROPYLAMINO)METHYLENEDIPHOSPHONIC ACID] | 200 | 200 | – |
| CCO[C@H]1O[C@@H]2O[C@@]3(C)CC[C@H]4[C@H](C)CC[C@@H]([C@H]1C)[C@@]24OO3 [ARTEMOTIL] | 1000 | – | IC50 [2]: 45 µM |
| O=P(O)(O)C(O)(C1CCC1)P(=O)(O)O [CYCLOBUTYL(HYDROXY)METHYLENEDIPHOSPHONIC ACID] | 200 | 200 | – |
| O=P(O)(O)C(O)(C1CC1)P(=O)(O)O [CYCLOPROPYL(HYDROXY)METHYLENEDIPHOSPHONIC ACID] | 200 | 200 | – |
